Source: article PMC9551036, “A selective and orally bioavailable VHL-recruiting PROTAC achieves SMARCA2 degradation in vivo” (Nature Communications, 2022)
pEC50: −log10 of the molar value. Several values for one entry are separate records, joined by “and”; a condition that tells them apart may be missing. Equal values may be shown once. Read-outs that look alike come from different tables or passages of the source.

Columns and labels:
[1] = Cell viability assay (CellTiter Glo) in a panel of cell lines; assay type: cell-based, human; settings: for EC50 / pEC50: Homo sapiens; for EC50: read-out: LogEC50 (viability) (converted); for pEC50: values derived from curves in Extended Fig 4b, read-out: EC50 mean; for viability at 1 µM / viability at 0.316 µM / viability at 1.25 µM / viability at 0.313 µM / viability at 0.1 µM: human; for viability at 1 µM: log10 conc -6 mol/l; for viability at 0.316 µM: log10 conc -6.50031 mol/l; for viability at 1.25 µM: log10 conc -5.90309 mol/l; for viability at 0.313 µM: log10 conc -6.50446 mol/l; for viability at 0.1 µM: log10 conc -7 mol/l
Procedure: 500–2000 cells were seeded in white, clear bottom 96-well plates (Corning or Perkin Elmer) in 180–200 µl medium per well. The next day, compounds were added using a digital dispenser and a T0 sample was measured for reference. Cells were incubated for 144–192 h, and viability (luminescence) was measured using CellTiter Glo or CellTiter Glo 2.0 (Promega) according to manufacturer’s instructions after equilibrating cells and reagents at room temperature and 10–20 min incubation time while shaking.

SMARCA2 = SMARCA2 (Homo sapiens, UniProt P51531); test: Ex vivo human whole blood assay, SMARCA2; assay type: cell-based; design: endogenous in cells; settings: for HillSlope (best-fit value) / DC50: four-parameter fit; for Bottom (best-fit value) / Span (best-fit value) / Top (best-fit value): four-parameter fit of % protein remaining; for DC50: read-out: EC50 (best-fit value); for LogEC50 (best-fit value): log10 of concentration (mol/l)
Procedure: The assay was performed on human whole blood from three healthy donors, purchased from the Austrian Red Cross who always obtain samples under informed consent. […] Samples were pivoted at room temperature for 18 h in the dark. Subsequently, peripheral blood mononucleated cells (PBMCs) were isolated from individual aliquots using SepMate Tubes (StemCell) and Lymphoprep (StemCell) medium according to the manufacturer’s instructions and protein lysates were prepared using MSD Lysis buffer (Mesocale Discovery) supplemented with 1:100 Halt Phosphatase-Protease Inhibitor Cocktail (Thermo Fisher), 0.5 µl/ml benzonase (Novagen) and 10 mM DTT. SMARCA2 and SMARCA4 protein levels were determined using capillary electrophoresis (Bio-Techne) according to manufacturer’s instructions. Incubation with primary antibodies for SMARCA2 (Cell Signalling #11966 clone D9E8B RRID:AB_2797783 1:25), SMARCA4 (Abcam #ab110641 clone EPNCIR111A RRID:AB_10861578 1:25) and GAPDH (Abcam, #ab9485 RRID:AB_307275 1:1000) were performed for 30 min.

Chain of SMARCA2 (P51531 whole entry): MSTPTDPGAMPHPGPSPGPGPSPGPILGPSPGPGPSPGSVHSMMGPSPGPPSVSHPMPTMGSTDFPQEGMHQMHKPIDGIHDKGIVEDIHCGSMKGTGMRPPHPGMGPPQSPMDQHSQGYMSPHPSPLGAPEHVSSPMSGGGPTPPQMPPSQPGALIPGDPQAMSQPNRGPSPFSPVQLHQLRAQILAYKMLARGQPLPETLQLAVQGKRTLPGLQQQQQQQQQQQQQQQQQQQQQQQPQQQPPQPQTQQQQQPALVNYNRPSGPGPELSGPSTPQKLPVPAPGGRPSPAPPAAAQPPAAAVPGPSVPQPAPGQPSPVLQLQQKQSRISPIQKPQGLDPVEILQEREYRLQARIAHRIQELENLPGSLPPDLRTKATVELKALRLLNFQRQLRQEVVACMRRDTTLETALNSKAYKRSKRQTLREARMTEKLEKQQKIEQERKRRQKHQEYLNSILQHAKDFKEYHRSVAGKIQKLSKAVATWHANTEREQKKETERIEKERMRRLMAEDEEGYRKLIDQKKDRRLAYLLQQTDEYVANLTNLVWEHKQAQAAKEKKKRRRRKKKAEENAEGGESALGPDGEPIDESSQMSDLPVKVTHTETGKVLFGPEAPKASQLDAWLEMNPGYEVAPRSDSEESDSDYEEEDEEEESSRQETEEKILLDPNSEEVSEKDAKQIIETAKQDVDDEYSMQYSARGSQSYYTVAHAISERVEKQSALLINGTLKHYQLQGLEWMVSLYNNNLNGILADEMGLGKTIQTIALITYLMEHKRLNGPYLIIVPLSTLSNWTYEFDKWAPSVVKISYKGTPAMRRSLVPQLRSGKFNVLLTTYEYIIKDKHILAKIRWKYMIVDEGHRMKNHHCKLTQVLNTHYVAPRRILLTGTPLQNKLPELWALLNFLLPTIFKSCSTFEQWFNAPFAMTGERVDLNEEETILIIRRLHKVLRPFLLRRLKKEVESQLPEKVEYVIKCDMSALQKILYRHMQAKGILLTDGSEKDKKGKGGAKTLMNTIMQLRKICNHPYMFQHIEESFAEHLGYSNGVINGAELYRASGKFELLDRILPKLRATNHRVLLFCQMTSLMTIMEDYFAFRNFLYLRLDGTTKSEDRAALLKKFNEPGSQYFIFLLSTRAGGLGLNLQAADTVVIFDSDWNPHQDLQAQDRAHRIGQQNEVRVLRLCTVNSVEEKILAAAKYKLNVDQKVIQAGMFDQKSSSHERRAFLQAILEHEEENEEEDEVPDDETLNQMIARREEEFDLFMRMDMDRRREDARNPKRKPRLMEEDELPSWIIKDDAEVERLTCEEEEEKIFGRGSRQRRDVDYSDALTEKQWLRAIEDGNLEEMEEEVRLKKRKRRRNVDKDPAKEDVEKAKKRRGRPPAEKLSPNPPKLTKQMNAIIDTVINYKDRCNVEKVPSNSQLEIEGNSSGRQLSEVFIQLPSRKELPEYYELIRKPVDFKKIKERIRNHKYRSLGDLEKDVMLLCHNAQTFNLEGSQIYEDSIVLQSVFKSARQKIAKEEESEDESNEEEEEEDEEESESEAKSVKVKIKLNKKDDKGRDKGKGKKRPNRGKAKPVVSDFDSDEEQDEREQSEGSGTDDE

Cc1ncsc1-c1ccc(C(CCC(C)CCN2CCC(c3ccc4c(c3)n(C3CCCC3)c3nc(=O)c5c(Br)cccc5n43)CC2)NC(=O)C2CC(O)CN2C(=O)C(NC(=O)C2(F)CC2)C(C)(C)C)cc1 (stereo not drawn) [ACBI2]
EC50 ([1]; A549, A549): 29.3 nM
pEC50 ([1]; A549, A549): 7.53
EC50 ([1]; HCC364, HCC-364): 70.8 nM
pEC50 ([1]; HCC364, HCC-364): 7.15
EC50 ([1]; HCC515, HCC-515): 2.11 nM
pEC50 ([1]; HCC515, HCC-515): 8.68
EC50 ([1]; HCC4006, HCC4006): 191 nM
pEC50 ([1]; HCC4006, HCC4006): 6.72
EC50 ([1]; LXFA 629L, LXFA_629L): 16.5 nM
pEC50 ([1]; LXFA 629L, LXFA_629L): 7.78
EC50 ([1]; LXFA_923L): 4.36 nM
pEC50 ([1]; LXFA_923L): 8.36
EC50 ([1]; LXFL 529L, LXFL_529L): 0.382 nM
pEC50 ([1]; LXFL 529L, LXFL_529L): 9.42
EC50 ([1]; Lu-99, LU99): 132 nM
pEC50 ([1]; Lu-99, LU99): 6.88
EC50 ([1]; MP38): 8.75 nM
pEC50 ([1]; MP38): 8.06
EC50 ([1]; NCI-H1355, NCI-H1355): 15.6 nM
pEC50 ([1]; NCI-H1355, NCI-H1355): 7.81
EC50 ([1]; OV-90, OV-90): 67.5 nM
pEC50 ([1]; OV-90, OV-90): 7.17
EC50 ([1]; SK-MEL-5, SK-MEL-5): 2.82 nM
pEC50 ([1]; SK-MEL-5, SK-MEL-5): 8.55
viability at 1 µM ([1]; A549 cells, A549): 44%
viability at 0.316 µM ([1]; A549 cells, A549): 43.1%
viability at 1.25 µM ([1]; HCC4006 cells, HCC4006): 42.2%
viability at 0.313 µM ([1]; HCC4006 cells, HCC4006): 53.4%
viability at 1.25 µM ([1]; HCC-364 cells, HCC-364): 14.6%
viability at 0.313 µM ([1]; HCC-364 cells, HCC-364): 20.4%
viability at 1 µM ([1]; HCC-515 cells, HCC-515): 15%
viability at 0.316 µM ([1]; HCC-515 cells, HCC-515): 22.4%
viability at 1.25 µM ([1]; KYSE-30 cells, KYSE-30): 91.1%
viability at 0.313 µM ([1]; KYSE-30 cells, KYSE-30): 92.8%
viability at 0.313 µM ([1]; LU99 cells, LU99): 30.1%
viability at 1 µM ([1]; LXFA 629L cells, LXFA_629L): 14.9%
viability at 0.316 µM ([1]; LXFA 629L cells, LXFA_629L): 24.7%
viability at 1 µM ([1]; LXFA 923L cells, LXFA_923L): 13.6%
viability at 0.316 µM ([1]; LXFA 923L cells, LXFA_923L): 21.4%
viability at 1 µM ([1]; LXFL 529L cells, LXFL_529L): 4.39%
viability at 0.316 µM ([1]; LXFL 529L cells, LXFL_529L): 6.27%
viability at 0.1 µM ([1]; LXFL 529L cells, LXFL_529L): 9.52%
viability at 1 µM ([1]; LXFL 1121L cells, LXFL_1121L): 90.4%
viability at 0.316 µM ([1]; LXFL 1121L cells, LXFL_1121L): 92.1%
viability at 0.1 µM ([1]; LXFL 1121L cells, LXFL_1121L): 89.5%
viability at 1 µM ([1]; MP38 cells, MP38): 1.87%
viability at 0.316 µM ([1]; MP38 cells, MP38): 0.609%
viability at 0.1 µM ([1]; MP38 cells, MP38): 1.6%
viability at 1.25 µM ([1]; NCI-H23 cells, NCI-H23): 75.3%
viability at 0.313 µM ([1]; NCI-H23 cells, NCI-H23): 76.1%
viability at 1.25 µM ([1]; OV-90 cells, OV-90): 35.5%
viability at 0.313 µM ([1]; OV-90 cells, OV-90): 45.5%
viability at 1.25 µM ([1]; SK-MEL-5 cells, SK-MEL-5): 1.81%
viability at 0.313 µM ([1]; SK-MEL-5 cells, SK-MEL-5): 2.34%
viability at 1.25 µM ([1]; TOV-112D cells, TOV-112D): 91.7%
viability at 0.313 µM ([1]; TOV-112D cells, TOV-112D): 103%
% protein remaining, SMARCA2 (SMARCA2; Donor 1, log10[concentration (mol/l)] -6): 7.774% and 7.336% and 6.483%
% protein remaining, SMARCA2 (SMARCA2; Donor 1, log10[concentration (mol/l)] -6.47712): 27.8553% and 21.8081% and 18.9544%
% protein remaining, SMARCA2 (SMARCA2; Donor 1, log10[concentration (mol/l)] -6.95424): 43.7755% and 37.877% and 37.8583%
% protein remaining, SMARCA2 (SMARCA2; Donor 1, log10[concentration (mol/l)] -7.43136): 67.8936% and 57.3294% and 53.6432%
% protein remaining, SMARCA2 (SMARCA2; Donor 1, log10[concentration (mol/l)] -7.90848): 91.2009% and 93.1862% and 66.2599%
% protein remaining, SMARCA2 (SMARCA2; Donor 1, log10[concentration (mol/l)] -8.38561): 88.6362% and 87.296% and 66.0015%
% protein remaining, SMARCA2 (SMARCA2; Donor 1, log10[concentration (mol/l)] -8.86273): 73.7554% and 107.064% and 91.2397%
HillSlope (best-fit value) (SMARCA2; Donor 1 SMARCA2): -0.8748
Bottom (best-fit value) (SMARCA2; Donor 1 SMARCA2): -2.012%
Span (best-fit value) (SMARCA2; Donor 1 SMARCA2): 93.51%
Top (best-fit value) (SMARCA2; Donor 1 SMARCA2): 91.5%
DC50 (SMARCA2; Donor 1 SMARCA2): 91.1 nM
LogEC50 (best-fit value) (SMARCA2; Donor 1 SMARCA2): -7.04
% protein remaining, SMARCA2 (SMARCA2; Donor 2, log10[concentration (mol/l)] -6): 7.351% and 9.811% and 14.3342%
% protein remaining, SMARCA2 (SMARCA2; Donor 2, log10[concentration (mol/l)] -6.47712): 29.8249% and 32.3978% and 22.5296%
% protein remaining, SMARCA2 (SMARCA2; Donor 2, log10[concentration (mol/l)] -6.95424): 46.7755% and 52.5543% and 72.1634%
% protein remaining, SMARCA2 (SMARCA2; Donor 2, log10[concentration (mol/l)] -7.43136): 100.769% and 75.1426% and 71.9733%
% protein remaining, SMARCA2 (SMARCA2; Donor 2, log10[concentration (mol/l)] -7.90848): 102.968% and 75.392% and 80.5753%
% protein remaining, SMARCA2 (SMARCA2; Donor 2, log10[concentration (mol/l)] -8.38561): 67.4421% and 97.2734% and 86.3024%
% protein remaining, SMARCA2 (SMARCA2; Donor 2, log10[concentration (mol/l)] -8.86273): 85.0643% and 65.7852% and 85.6876%
HillSlope (best-fit value) (SMARCA2; Donor 2 SMARCA2): -1.742
Bottom (best-fit value) (SMARCA2; Donor 2 SMARCA2): 8.097%
Span (best-fit value) (SMARCA2; Donor 2 SMARCA2): 75.81%
Top (best-fit value) (SMARCA2; Donor 2 SMARCA2): 83.91%
DC50 (SMARCA2; Donor 2 SMARCA2): 172 nM
LogEC50 (best-fit value) (SMARCA2; Donor 2 SMARCA2): -6.765
% protein remaining, SMARCA2 (SMARCA2; Donor 3, log10[concentration (mol/l)] -6): 11.0787% and 14.9408% and 20.3816%
% protein remaining, SMARCA2 (SMARCA2; Donor 3, log10[concentration (mol/l)] -6.47712): 32.5224% and 22.883% and 24.5065%
% protein remaining, SMARCA2 (SMARCA2; Donor 3, log10[concentration (mol/l)] -6.95424): 43.403% and 45.8346% and 34.6157%
% protein remaining, SMARCA2 (SMARCA2; Donor 3, log10[concentration (mol/l)] -7.43136): 68.0983% and 70.9906% and 84.1093%
% protein remaining, SMARCA2 (SMARCA2; Donor 3, log10[concentration (mol/l)] -7.90848): 97.8509% and 97.5546% and 65.5857%
% protein remaining, SMARCA2 (SMARCA2; Donor 3, log10[concentration (mol/l)] -8.38561): 73.4464% and 119.725% and 73.7076%
% protein remaining, SMARCA2 (SMARCA2; Donor 3, log10[concentration (mol/l)] -8.86273): 88.433% and 116.976% and 110.86%
HillSlope (best-fit value) (SMARCA2; Donor 3 SMARCA2): -0.9991
Bottom (best-fit value) (SMARCA2; Donor 3 SMARCA2): 9.358%
Span (best-fit value) (SMARCA2; Donor 3 SMARCA2): 92.07%
Top (best-fit value) (SMARCA2; Donor 3 SMARCA2): 101.4%
DC50 (SMARCA2; Donor 3 SMARCA2): 70.3 nM
LogEC50 (best-fit value) (SMARCA2; Donor 3 SMARCA2): -7.153
SMARCA2 degradation in human whole blood (SMARCA2; three healthy donors, 18 h): significant degradation of SMARCA2
